In PubChem BioAssay (NCI):
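48-hour exposure; five concentrations; linearly interpolated endpoints. TGI is the concentration that stops growth completely.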 Where a SMILES comes first, the peptide text is derived from it. The star is where a group is joined. Fmoc = O=C(OCC1c2ccccc2-c2ccccc21)*; OBn = c1ccc(CO*)cc1; tBu = CC(C)(C)*

Assays:
Test in all cases: DTP human tumour cell line panel, 48 h
[1] = tested on: SR leukemia
[2] = tested on: NCI-H522 lung
[3] = tested on: OVCAR-3 ovarian
[4] = tested on: SK-OV-3 ovarian
[5] = tested on: MDA-N
[6] = tested on: U251 CNS
[7] = tested on: EKVX NSCLC
[8] = tested on: TK-10 renal
[9] = tested on: T-47D breast
[10] = tested on: HCT-15 colon

SMILES | TGI [1] | TGI [2] | TGI [3] | TGI [4] | TGI [5] | TGI [6] | TGI [7] | TGI [8] | TGI [9] | TGI [10]
Clc1ccc(-c2nn3c(COc4ccc(OCc5nnc6sc(-c7ccc(Cl)cc7)nn56)c(Cl)c4)nnc3s2)cc1 | 61.4 µM | 37.4 µM | > 100 µM | > 100 µM | 67.2 µM | 54.7 µM | > 100 µM | 45.7 µM | > 100 µM | > 100 µM
c1ccc(CN2CCC(CNc3ncnc4ccccc34)C2)cc1 (stereo not given) | 65.1 µM | > 100 µM | > 100 µM | > 100 µM | > 100 µM | > 100 µM | > 100 µM | > 100 µM | > 100 µM | > 100 µM
CC(OC(C)(C)C)C(NC(=O)OCC1c2ccccc2-c2ccccc21)C(=O)NC(Cc1ccccc1)C(=O)OCc1ccccc1 (stereo not given) (Fmoc-Thr(tBu)-Phe-OBn; configuration not given here) | > 100 µM | > 100 µM | > 100 µM | > 100 µM | > 100 µM | > 100 µM | > 100 µM | > 100 µM | > 100 µM | > 100 µM
CC(C)(C)c1cc(C(C)(C)C)c2sc(=O)oc2c1O | 63.6 µM | 26.7 µM | 25.9 µM | 35.3 µM | 29.9 µM | 27.8 µM | 29.2 µM | 24.1 µM | 19.8 µM | 25.3 µM
CCOC1OC(C)(C=C(C#N)C#N)CCC1C (stereo not given) | > 76.2 µM | 39.5 µM | > 71.6 µM | > 100 µM | > 100 µM | > 100 µM | > 100 µM | > 100 µM | > 100 µM | > 71.2 µM
O=C(CCCCCCCCC(=O)N1C(=O)CC(=O)N(c2ccc(Cl)cc2)C1=S)N1C(=O)CC(=O)N(c2ccc(Cl)cc2)C1=S | 83.7 µM | > 100 µM | > 100 µM | > 100 µM | > 100 µM | > 100 µM | > 100 µM | > 100 µM | > 100 µM | > 100 µM
Cc1c(-c2ccccc2)oc(=O)c2ccccc12 | 65.4 µM | 33.2 µM | 41.8 µM | 54.4 µM | 59.3 µM | 42.2 µM | 60.9 µM | 60.7 µM | 75.7 µM | 54.2 µM
C[N+](C)([O-])C12CC3CC(CC(C3)C1)C2 | > 100 µM | 65.7 µM | 58 µM | > 100 µM | > 100 µM | > 100 µM | 74.3 µM | 88 µM | 85.7 µM | > 100 µM
Nc1ncnc2c1ncn2CCCNO | > 100 µM | > 100 µM | > 100 µM | > 100 µM | > 100 µM | > 100 µM | > 100 µM | > 100 µM | > 100 µM | > 100 µM
N=C(N)c1ccc(N=Nc2c(O)c(C(=O)Nc3ccccc3)cc3ccccc23)cc1 | > 75.8 µM | 34.5 µM | > 53.3 µM | > 90.8 µM | > 100 µM | > 63.1 µM | 41.9 µM | > 68 µM | 38.2 µM | > 48.8 µM
CCOC(=O)NC(Nc1ccc(C(=O)O)cc1)(C(F)(F)F)C(F)(F)F | > 100 µM | > 100 µM | > 100 µM | > 100 µM | > 100 µM | > 100 µM | > 100 µM | > 100 µM | > 100 µM | > 100 µM
O=C(CN1CCCC1)Nc1ccc2c(c1)C1Oc3ccccc3CC1CO2 (stereo not given) | 89.6 µM | 96.5 µM | > 100 µM | > 100 µM | 88.2 µM | 56.5 µM | > 100 µM | > 100 µM | > 100 µM | 47.2 µM
C=C(C)C1CCC2(C)C1CCC1(C)C2CCC2C3(C)C4OC(OC4=O)C(C)(C)C3CCC21C (stereo not given) | > 100 µM | 53.6 µM | > 100 µM | > 100 µM | > 100 µM | > 100 µM | > 100 µM | > 100 µM | > 100 µM | > 100 µM
Cc1cc(C)nc(NS(=O)(=O)c2ccc(NC(=O)c3ccc4nc5ccccc5c(Nc5ccc(S(=O)(=O)N=C(N)N)cc5)c4c3)cc2)n1 | > 100 µM | > 100 µM | > 100 µM | > 100 µM | > 100 µM | > 100 µM | > 100 µM | > 100 µM | > 100 µM | > 100 µM
CCCCCCCCCCCCCCCCOC[C@H](COC(c1ccccc1)(c1ccccc1)c1ccccc1)O[P+](=S)OC (stereo not given in full) | > 100 µM | > 100 µM | > 100 µM | > 100 µM | > 100 µM | > 100 µM | > 100 µM | > 100 µM | > 100 µM | > 100 µM
COC(=O)[C@]1(c2cc3ccccc3[nH]2)CC2CNC1C1OC(C)(C)OC21 (stereo not given in full) | > 100 µM | > 100 µM | > 100 µM | > 100 µM | > 100 µM | > 100 µM | > 100 µM | > 100 µM | > 100 µM | > 100 µM
CN=C1C=C(/N=C2/C=C(N/C(=C\C#N)C(C)(C)O)OC2(C)C)OC1(C)C | > 68.5 µM | 69 µM | > 100 µM | > 73.6 µM | > 100 µM | > 100 µM | > 100 µM | > 100 µM | > 100 µM | > 100 µM
COC(=O)c1sc2c(Cl)c(Cl)sc2c1Cl | > 100 µM | > 100 µM | > 100 µM | > 100 µM | > 100 µM | > 100 µM | > 100 µM | 82 µM | > 100 µM | > 100 µM
O=C(Nc1nnc(-c2ccccc2)o1)C(SC(=S)N1CCCC1)c1ccccc1 (stereo not given) | > 100 µM | 77.8 µM | 74.4 µM | > 100 µM | > 100 µM | > 100 µM | 68 µM | > 100 µM | > 100 µM | > 100 µM
Cc1cc(C)n(C(C)(C(=O)Cc2ccccc2)n2nc(C)cc2C)n1 | > 100 µM | > 100 µM | > 100 µM | > 100 µM | > 100 µM | > 100 µM | > 100 µM | > 100 µM | > 100 µM | > 100 µM
CSC1=C(C)C(/C=N/Nc2ccc([N+](=O)[O-])cc2)=C(C)N(c2ccccc2)S1(=O)=O | > 100 µM | > 100 µM | > 100 µM | > 100 µM | > 100 µM | > 100 µM | > 100 µM | > 100 µM | > 100 µM | > 100 µM
CC(C)(C)OC(=O)N1CCC2(CC1)C(=O)NCN2c1ccccc1 | > 100 µM | > 100 µM | > 100 µM | > 100 µM | > 100 µM | > 100 µM | > 100 µM | > 100 µM | > 100 µM | > 100 µM
COc1ccc(Nc2nc(N)c(C(=O)c3ccco3)s2)cc1 | > 33.8 µM | > 100 µM | > 70.6 µM | > 100 µM | > 100 µM | > 100 µM | > 100 µM | > 57.5 µM | > 100 µM | > 100 µM
Cc1c(C)c2c(c(N)c1C#N)C(=O)N(NC(=S)Nc1ccccc1)C2=O | 83.5 µM | > 100 µM | > 100 µM | > 100 µM | > 100 µM | > 100 µM | > 100 µM | > 100 µM | > 100 µM | > 100 µM
CCOc1ccc(Nc2nc(N)nc(N)c2N=O)cc1 | > 100 µM | > 100 µM | > 100 µM | > 100 µM | > 100 µM | > 100 µM | > 100 µM | > 100 µM | > 100 µM | > 100 µM
COC1=C(OC)C(=O)C(Cc2c(-c3ccccc3)nc3sc(Cl)cn23)=C(C)C1=O | 72.1 µM | 30.8 µM | 32 µM | 37.8 µM | 34.2 µM | 40.1 µM | 41.6 µM | 45 µM | > 100 µM | 36.1 µM
Nc1c(-c2ccccc2)c2ccc([N+](=O)[O-])cc2c(=O)n1-c1cccc(C(=O)O)c1 | > 100 µM | > 100 µM | > 100 µM | > 100 µM | > 100 µM | > 100 µM | > 100 µM | > 100 µM | > 100 µM | > 100 µM
